Experimental data reported in the kinase profiling compilation of Christmann-Franck et al. (2016).

Assays:
Conditions in all cases: compound 10.0 µM
[1] = target: SGK110 (human) (UniProt P0C264)
[2] = target: RIPK2 (human) (UniProt O43353)
[3] = target: TAOK1 (human) (UniProt Q7L7X3)
[4] = target: INSR (human) (UniProt P06213)
[5] = target: TNK2 (human) (UniProt Q07912)
[6] = target: FES (human) (UniProt P07332)
[7] = target: NEK6 (human) (UniProt Q9HC98)
[8] = target: MAPK11 (human) (UniProt Q15759)
[9] = target: STK3 (human) (UniProt Q13188)
[10] = target: CAMK2A (human) (UniProt Q9UQM7)
[11] = target: PRKX (human) (UniProt P51817)
[12] = target: ADCK4 (human) (UniProt Q96D53)
[13] = target: MAP4K5 (human) (UniProt Q9Y4K4)
[14] = target: CDK14 (human) (UniProt O94921)
[15] = target: CDKL3 (human) (UniProt Q8IVW4)
[16] = target: MKNK1 (human) (UniProt Q9BUB5)
[17] = target: IRAK1 (human) (UniProt P51617)
[18] = target: TGFBR2 (human) (UniProt P37173)
[19] = target: CLK4 (human) (UniProt Q9HAZ1)
[20] = target: TLK2 (human) (UniProt Q86UE8)
[21] = target: HIPK3 (human) (UniProt Q9H422)
[22] = target: DSTYK (human) (UniProt Q6XUX3)
[23] = target: CDK4 CCND1 (human) (UniProt P11802+P24385)
Chain of CDK4 CCND1 (human) (P11802 whole entry, looked up): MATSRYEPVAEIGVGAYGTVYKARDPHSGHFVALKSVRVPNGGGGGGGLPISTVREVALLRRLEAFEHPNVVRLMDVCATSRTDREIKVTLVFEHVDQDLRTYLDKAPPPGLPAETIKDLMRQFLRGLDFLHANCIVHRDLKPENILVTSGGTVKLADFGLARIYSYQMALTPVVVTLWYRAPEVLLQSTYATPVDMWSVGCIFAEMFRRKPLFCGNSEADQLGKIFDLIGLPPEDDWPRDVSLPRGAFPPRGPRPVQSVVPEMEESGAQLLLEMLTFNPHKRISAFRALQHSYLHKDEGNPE
Chain of CDK4 CCND1 (human) (P24385 whole entry, looked up): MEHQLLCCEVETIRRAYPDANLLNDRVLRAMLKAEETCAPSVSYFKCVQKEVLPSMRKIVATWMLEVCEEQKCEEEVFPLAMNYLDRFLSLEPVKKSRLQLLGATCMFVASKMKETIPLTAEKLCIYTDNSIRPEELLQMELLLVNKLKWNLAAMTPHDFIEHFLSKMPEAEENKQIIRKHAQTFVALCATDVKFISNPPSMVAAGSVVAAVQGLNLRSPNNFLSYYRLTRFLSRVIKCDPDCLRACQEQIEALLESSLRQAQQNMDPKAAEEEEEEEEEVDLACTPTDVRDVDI

[24] = target: STK4 (human) (UniProt Q13043)
[25] = test system: FLT3 (human), P36888 [D835H]
[26] = target: EPHA8 (human) (UniProt P29322)
[27] = target: CAMK4 (human) (UniProt Q16566)
[28] = target: PIP4K2B (human) (UniProt P78356)
[29] = target: CSNK1A1L (human) (UniProt Q8N752)
[30] = target: PRKD1 (human) (UniProt Q15139)
Chain of PRKD1 (human) (Q15139 whole entry, looked up): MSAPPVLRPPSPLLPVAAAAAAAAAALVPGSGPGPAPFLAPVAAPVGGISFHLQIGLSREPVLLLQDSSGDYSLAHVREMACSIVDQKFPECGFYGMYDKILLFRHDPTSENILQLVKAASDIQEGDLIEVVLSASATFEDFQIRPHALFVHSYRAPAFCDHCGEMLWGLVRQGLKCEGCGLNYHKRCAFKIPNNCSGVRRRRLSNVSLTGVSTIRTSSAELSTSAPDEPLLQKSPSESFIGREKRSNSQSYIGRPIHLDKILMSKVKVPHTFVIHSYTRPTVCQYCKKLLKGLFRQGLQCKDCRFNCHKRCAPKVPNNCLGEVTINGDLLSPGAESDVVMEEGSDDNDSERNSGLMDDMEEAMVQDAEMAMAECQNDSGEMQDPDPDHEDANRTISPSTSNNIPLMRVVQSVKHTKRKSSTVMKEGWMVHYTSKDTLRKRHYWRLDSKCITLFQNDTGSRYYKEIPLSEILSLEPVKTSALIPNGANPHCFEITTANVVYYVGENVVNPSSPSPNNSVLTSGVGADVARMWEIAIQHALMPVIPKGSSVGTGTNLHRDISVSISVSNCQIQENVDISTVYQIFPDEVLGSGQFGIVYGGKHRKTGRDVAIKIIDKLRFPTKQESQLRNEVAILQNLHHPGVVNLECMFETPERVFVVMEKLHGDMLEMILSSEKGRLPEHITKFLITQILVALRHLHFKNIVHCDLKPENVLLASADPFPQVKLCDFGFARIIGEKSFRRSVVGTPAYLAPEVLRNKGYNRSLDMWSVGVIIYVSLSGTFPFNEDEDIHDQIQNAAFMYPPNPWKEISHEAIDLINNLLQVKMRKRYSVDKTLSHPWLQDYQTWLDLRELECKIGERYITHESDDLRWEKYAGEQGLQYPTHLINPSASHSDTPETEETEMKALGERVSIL

[31] = target: GRK7 (human) (UniProt Q8WTQ7)
[32] = target: PKN3 (M.tuberculosis) (UniProt Q6P5Z2)
[33] = target: MYLK2 (human) (UniProt Q9H1R3)
[34] = target: MAPK10 (human) (UniProt P53779)
Chain of MAPK10 (human) (P53779 whole entry, looked up): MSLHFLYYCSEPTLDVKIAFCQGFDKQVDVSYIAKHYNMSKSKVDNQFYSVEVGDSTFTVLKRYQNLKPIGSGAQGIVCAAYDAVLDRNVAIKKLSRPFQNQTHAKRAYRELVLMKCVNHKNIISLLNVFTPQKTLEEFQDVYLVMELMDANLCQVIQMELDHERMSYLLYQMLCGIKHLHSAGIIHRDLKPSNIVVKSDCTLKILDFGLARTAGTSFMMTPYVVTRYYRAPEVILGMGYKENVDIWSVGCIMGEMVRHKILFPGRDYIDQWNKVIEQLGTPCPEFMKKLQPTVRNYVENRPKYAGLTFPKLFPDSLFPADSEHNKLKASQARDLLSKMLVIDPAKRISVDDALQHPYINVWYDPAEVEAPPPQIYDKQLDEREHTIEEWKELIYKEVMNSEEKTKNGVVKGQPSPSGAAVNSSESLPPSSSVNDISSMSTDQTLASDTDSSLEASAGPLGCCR

[35] = target: MAP4K4 (human) (UniProt O95819)
[36] = target: NEK2 (human) (UniProt P51955)
[37] = target: IRAK4 (human) (UniProt Q9NWZ3)
[38] = test system: CPK1 (P.falciparum)
[39] = target: MAPK9 (human) (UniProt P45984)
[40] = target: PKMYT1 (human) (UniProt Q99640)
[41] = target: LRRK2 (human) (UniProt Q5S007)
Chain of LRRK2 (human) (Q5S007 whole entry, looked up): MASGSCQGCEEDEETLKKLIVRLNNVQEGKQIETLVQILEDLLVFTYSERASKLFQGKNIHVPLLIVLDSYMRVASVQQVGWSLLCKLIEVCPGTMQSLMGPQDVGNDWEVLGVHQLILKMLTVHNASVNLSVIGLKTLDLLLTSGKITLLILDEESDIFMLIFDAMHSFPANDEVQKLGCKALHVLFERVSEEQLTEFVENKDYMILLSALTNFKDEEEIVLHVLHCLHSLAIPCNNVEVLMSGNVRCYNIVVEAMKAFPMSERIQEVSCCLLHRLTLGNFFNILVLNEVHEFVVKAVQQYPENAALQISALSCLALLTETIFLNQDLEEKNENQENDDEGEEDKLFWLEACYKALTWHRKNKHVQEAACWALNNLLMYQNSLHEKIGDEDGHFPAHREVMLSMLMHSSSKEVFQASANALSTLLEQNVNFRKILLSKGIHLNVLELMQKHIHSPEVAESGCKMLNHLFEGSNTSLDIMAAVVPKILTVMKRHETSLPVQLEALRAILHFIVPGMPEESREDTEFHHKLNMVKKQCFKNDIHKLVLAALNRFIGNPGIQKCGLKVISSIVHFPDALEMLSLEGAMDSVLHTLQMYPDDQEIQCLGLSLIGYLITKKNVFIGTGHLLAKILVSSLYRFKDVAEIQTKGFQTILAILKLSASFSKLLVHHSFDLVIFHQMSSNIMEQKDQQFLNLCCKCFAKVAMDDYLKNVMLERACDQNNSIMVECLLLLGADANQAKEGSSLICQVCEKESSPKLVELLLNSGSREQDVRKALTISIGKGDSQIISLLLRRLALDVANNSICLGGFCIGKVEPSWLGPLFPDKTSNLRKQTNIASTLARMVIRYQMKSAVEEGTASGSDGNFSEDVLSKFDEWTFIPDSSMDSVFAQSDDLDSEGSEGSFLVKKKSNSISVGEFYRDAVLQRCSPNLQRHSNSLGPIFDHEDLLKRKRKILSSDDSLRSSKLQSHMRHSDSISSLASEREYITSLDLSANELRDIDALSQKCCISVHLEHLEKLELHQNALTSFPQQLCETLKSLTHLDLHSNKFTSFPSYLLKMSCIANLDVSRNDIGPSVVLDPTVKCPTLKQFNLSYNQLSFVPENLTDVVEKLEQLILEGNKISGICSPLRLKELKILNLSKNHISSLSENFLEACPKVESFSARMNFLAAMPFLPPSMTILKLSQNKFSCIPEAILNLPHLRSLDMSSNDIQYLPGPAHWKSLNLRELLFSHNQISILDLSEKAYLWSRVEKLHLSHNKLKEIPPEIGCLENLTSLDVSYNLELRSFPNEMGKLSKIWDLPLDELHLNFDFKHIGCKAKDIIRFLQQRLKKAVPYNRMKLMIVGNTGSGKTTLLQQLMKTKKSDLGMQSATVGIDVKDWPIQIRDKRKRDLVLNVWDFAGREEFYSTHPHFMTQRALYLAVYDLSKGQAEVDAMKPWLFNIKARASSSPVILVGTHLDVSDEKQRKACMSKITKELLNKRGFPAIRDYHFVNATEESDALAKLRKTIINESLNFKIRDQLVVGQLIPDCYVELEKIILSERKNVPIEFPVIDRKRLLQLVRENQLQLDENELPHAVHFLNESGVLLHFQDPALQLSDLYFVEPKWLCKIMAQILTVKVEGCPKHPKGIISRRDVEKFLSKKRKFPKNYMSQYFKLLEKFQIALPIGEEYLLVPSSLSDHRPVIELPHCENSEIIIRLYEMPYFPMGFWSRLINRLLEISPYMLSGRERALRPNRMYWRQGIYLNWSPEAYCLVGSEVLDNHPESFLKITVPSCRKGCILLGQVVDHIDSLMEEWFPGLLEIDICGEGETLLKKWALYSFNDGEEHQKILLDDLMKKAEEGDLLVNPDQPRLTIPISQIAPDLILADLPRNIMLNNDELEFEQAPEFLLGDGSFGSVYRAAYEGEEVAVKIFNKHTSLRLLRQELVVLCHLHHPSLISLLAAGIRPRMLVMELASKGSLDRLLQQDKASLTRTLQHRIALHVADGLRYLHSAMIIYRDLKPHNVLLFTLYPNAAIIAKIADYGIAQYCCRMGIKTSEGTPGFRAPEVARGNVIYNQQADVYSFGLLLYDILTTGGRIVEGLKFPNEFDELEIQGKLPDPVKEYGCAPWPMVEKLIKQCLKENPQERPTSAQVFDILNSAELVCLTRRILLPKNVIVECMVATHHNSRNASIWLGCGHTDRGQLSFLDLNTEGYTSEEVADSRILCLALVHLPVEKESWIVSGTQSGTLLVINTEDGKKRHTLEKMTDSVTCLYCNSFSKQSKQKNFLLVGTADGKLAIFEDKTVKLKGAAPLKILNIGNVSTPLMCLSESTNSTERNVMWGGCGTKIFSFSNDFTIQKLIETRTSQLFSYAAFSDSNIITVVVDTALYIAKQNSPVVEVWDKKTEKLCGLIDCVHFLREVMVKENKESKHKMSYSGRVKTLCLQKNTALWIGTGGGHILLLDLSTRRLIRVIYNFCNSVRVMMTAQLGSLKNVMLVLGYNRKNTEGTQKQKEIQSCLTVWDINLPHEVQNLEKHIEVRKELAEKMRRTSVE

[42] = target: PAK1 (human) (UniProt Q13153)
Chain of PAK1 (human) (Q13153 whole entry, looked up): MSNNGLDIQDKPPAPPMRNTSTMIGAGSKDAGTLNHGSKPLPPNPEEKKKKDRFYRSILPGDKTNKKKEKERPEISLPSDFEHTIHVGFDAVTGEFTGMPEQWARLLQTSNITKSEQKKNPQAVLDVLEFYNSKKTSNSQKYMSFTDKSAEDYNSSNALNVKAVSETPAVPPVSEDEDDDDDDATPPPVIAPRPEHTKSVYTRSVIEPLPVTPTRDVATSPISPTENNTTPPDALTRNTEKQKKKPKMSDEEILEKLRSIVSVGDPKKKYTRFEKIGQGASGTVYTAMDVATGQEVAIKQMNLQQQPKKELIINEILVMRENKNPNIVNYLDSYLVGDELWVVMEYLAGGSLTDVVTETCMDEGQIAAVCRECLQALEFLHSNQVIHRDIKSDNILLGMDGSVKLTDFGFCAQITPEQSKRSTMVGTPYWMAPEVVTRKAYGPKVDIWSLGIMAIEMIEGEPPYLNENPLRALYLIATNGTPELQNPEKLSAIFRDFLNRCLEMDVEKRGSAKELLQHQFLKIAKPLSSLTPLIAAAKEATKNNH

`CNC(=O)c1cc(Oc2ccc(NC(=O)Nc3ccc(Cl)c(C(F)(F)F)c3)cc2)ccn1` was tested, and the per cent of control [1] was 91%, the per cent of control [2] was 5.3% and the per cent of control [3] was 12%. For the same molecule, the per cent of control [4] was 100%, the per cent of control [5] was 99% and the per cent of control [6] was 72%. For the same molecule, the per cent of control [7] was 100%, the per cent of control [8] was 0.05% and the per cent of control [9] was 100%. The per cent of control [10] was 93%, the per cent of control [11] was 98% and the per cent of control [12] was 90%. The per cent of control [13] was 1.5%, the per cent of control [14] was 3.1% and the per cent of control [15] was 0.35%. The per cent of control [16] was 1.6%, the per cent of control [17] was 76% and the per cent of control [18] was 25%. It also gave a per cent of control [19] of 30%, a per cent of control [20] of 99% and a per cent of control [21] of 1.2%. The per cent of control [22] was 100%, the per cent of control [23] was 66% and the per cent of control [24] was 96%. For the same molecule, the per cent of control [25] was 0.45%, the per cent of control [26] was 0.9% and the per cent of control [27] was 42%. The per cent of control [28] was 89%, the per cent of control [29] was 100% and the per cent of control [30] was 100%. For the same molecule, the per cent of control [31] was 100%, the residual activity [32] was 100% and the per cent of control [33] was 22%. The per cent of control [34] was 90%, the per cent of control [35] was 8.7% and the per cent of control [36] was 90%. The per cent of control [37] was 100%, the per cent of control [38] was 0.8% and the per cent of control [39] was 21%. The per cent of control [40] was 93%, the per cent of control [41] was 86% and the per cent of control [42] was 100%.

`CNC(=O)c1cc(Oc2ccc(NC(=O)Nc3ccc(Cl)c(C(F)(F)F)c3)cc2)cc[n+]1[O-]` showed a per cent of control [1] of 100%, a per cent of control [2] of 9.8% and a per cent of control [3] of 11%. For the same molecule, the per cent of control [4] was 83%, the per cent of control [5] was 100% and the per cent of control [6] was 98%. For the same molecule, the per cent of control [7] was 100%, the per cent of control [8] was 0% and the per cent of control [9] was 100%. The per cent of control [10] was 96%, the per cent of control [11] was 100% and the per cent of control [12] was 81%. For the same molecule, the per cent of control [13] was 0.45%, the per cent of control [14] was 3.8% and the per cent of control [15] was 0.3%. For the same molecule, the per cent of control [16] was 1%, the per cent of control [17] was 22% and the per cent of control [18] was 3.1%. The per cent of control [19] was 47%, the per cent of control [20] was 100% and the per cent of control [21] was 5.1%. For the same molecule, the per cent of control [22] was 68%, the per cent of control [23] was 74% and the per cent of control [24] was 42%. It also gave a per cent of control [25] of 0.7%, a per cent of control [26] of 0.3% and a per cent of control [27] of 54%. It also gave a per cent of control [28] of 88%, a per cent of control [29] of 100% and a per cent of control [30] of 63%. It also gave a per cent of control [31] of 100%, a residual activity [32] of 100% and a per cent of control [33] of 8.7%. For the same molecule, the per cent of control [34] was 4.4%, the per cent of control [35] was 0.5% and the per cent of control [36] was 71%. For the same molecule, the per cent of control [37] was 100%, the per cent of control [38] was 0.15% and the per cent of control [39] was 0.05%. For the same molecule, the per cent of control [40] was 100%, the per cent of control [41] was 80% and the per cent of control [42] was 100%.
